Results as given in patent publication US11708360B2, “N-substituted-dioxocyclobutenylamino-3-hydroxy-picolinamides useful as CCR6 inhibitors” (Pfizer Inc., priority 2018, dated 2023).
Where two headings read alike, the source gives them in different places. One block for each molecule: values may come before it.

Columns and labels:
[1] = biological target: T1, CCR6 (Homo sapiens, UniProt P51684); assay: CCR6+ T Cell Chemotaxis Assay; assay type: cell-based; conditions: for T Cell Chemotaxis Selectivity: Table 13, T cell chemotaxis compared to neutrophil chemotaxis, NS = not selective for T cell chemotaxis compared to neutrophil chemotaxis
T1 construct: Human CD4+CCR6+CXCR3-T cells were isolated from leukopak from healthy donors; endogenous in cells
T1 sequence (P51684 1-374): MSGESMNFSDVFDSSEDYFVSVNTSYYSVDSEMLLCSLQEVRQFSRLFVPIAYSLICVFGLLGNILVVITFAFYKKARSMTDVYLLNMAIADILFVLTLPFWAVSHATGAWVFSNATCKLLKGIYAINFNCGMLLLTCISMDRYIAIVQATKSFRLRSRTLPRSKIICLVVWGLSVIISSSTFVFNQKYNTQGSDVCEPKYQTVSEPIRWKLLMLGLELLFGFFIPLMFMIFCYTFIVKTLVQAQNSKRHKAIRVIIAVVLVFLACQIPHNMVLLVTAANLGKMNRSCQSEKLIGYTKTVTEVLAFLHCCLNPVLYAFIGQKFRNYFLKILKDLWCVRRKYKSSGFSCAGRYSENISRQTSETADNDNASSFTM
Excerpt: Human CD4+CCR6+CXCR3-T cells were isolated from leukopak from healthy donors using EasySep™ Human Th17 Cell Enrichment Kit. […] Day 4 post activation, Dynabeads were removed from the culture. The activated T cells were maintained at 1-2×10^6 cells/mL for 15 days by feeding fresh growth media when needed.
For IC50 determination, the top and bottom of the chemotaxis chamber contained the same concentration of compound. DMSO was kept constant at 0.1% (v/v) in all wells. The final concentration of CCL20 (Peprotech 300-29A) in the bottom chamber is 0.5 nM. The fully assembled chemotaxis plate was placed in a cell culture incubator at 37° C., 5% CO2 for 1 h. After incubation, the top filter was removed, followed by a quick freeze of the bottom chamber at −80° C. for 1 h. The migrated cells in the bottom chamber were stained with CyQUANT dye (Life Technologies, C7026) for cell number determination.
IC50 values for compounds of the present invention (Table 11) were determined by the non-linear regression analysis of dose response curves.

[2] = biological target: T2, CXCR2 (Homo sapiens, UniProt P25025); assay: Human Neutrophil Chemotaxis Assay; assay type: cell-based; set-up: Human neutrophils were purified from freshly drawn human whole blood; endogenous in cells; host or cells: primary human neutrophils from fresh whole blood
T2 sequence (P25025 1-360): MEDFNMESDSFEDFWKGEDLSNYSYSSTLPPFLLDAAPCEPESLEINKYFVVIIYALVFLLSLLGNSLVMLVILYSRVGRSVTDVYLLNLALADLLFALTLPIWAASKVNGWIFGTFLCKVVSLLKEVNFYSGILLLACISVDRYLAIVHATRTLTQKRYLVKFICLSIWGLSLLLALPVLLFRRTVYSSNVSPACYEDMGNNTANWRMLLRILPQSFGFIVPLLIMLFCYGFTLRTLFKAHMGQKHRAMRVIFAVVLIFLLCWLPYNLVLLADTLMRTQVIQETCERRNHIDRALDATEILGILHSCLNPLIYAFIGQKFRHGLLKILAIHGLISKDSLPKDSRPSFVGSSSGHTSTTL
Procedure: After 30 min, the labeled neutrophils were washed twice in chemotaxis buffer, resuspended as before and used immediately. For the assay, test compounds were tested in a dose-response format to determine IC50. Labeled neutrophils (50 μL) were pre-incubated with diluted test compound (50 μL) for 30 min in a 96-well plate (Greiner). Next, 100 μL of diluted compound was mixed with 100 μL of GROα (Peprotech #300-11, 2 nM) in the bottom portion of the chemotaxis chamber. The top portion (insert) of the chemotaxis system containing the FluoroBlok porous membrane was then assembled together. 50 μL of the pre-incubated neutrophils were added to the FluoroBlok insert (top portion) and chemotaxis measured by the neutrophils ability to migrate through the membrane towards the specific CXCR2 ligand, GROα.
IC50 values for compounds of the present invention (Table 12) were determined by the non-linear regression analysis of dose response curves.

[3] = Table 11, human CD4+CCR6+CXCR3- T cells, CCL20 0.5 nM in bottom chamber, 1 h at 37° C., read-out: IC50
[4] = Table 12, human neutrophils migrating towards the CXCR2 ligand GROα, read-out: IC50

IC50 [1, 3]: 24 nM
T Cell Chemotaxis Selectivity [1]: 104
R = CH3, T Cell Chemotaxis Selectivity ([1]; Table 14, R = CH3): 104
IC50 [2, 4]: 2510 nM
Structure (SMILES): Cc1nc([C@H](Nc2c(Nc3ccnc(C(=O)N(C)C)c3O)c(=O)c2=O)C2(C)CCCC2)c(C)o1 (single isomer, unassigned) [Example 34]

IC50 [1, 3]: 6.5 nM
IC50 [2, 4]: 502 nM
Structure (SMILES): [2H]C([2H])([2H])c1cn(C)nc1[C@H](Nc1c(Nc2ccnc(C(=O)N(C)C)c2O)c(=O)c1=O)C1(C)CCCC1 (single isomer, unassigned) [Example 39]

IC50 [1, 3]: 5.8 nM
IC50 ([1]; Table 14, R = CH3, read-out: R = CH3, IC50 (nM) CCR6 T cell, CCL20 Chemotaxis): 5.8 nM
IC50 [2, 4]: 524 nM
IC50 ([2]; Table 14, R = CH3, read-out: R = CH3, IC50 (nM) CXCR2 Neutrophil, GROα Chemotaxis): 524 nM
Structure (SMILES): Cc1cn(C)nc1[C@H](Nc1c(Nc2ccnc(C(=O)N(C)C)c2O)c(=O)c1=O)C1(C)CCCC1 [Example 1, (R)-4-((2-(((1,4-Dimethyl-1H-pyrazol-3-yl)(1-methylcyclopentyl)methyl)amino)-3,4-dioxocyclobut-1-en-1-yl)amino)-3-hydroxy-N,N-dimethylpicolinamide]

IC50 [1, 3]: 2.3 nM
T Cell Chemotaxis Selectivity [1]: 665
IC50 [2, 4]: 1530 nM
Structure (SMILES): Cc1cn(C)nc1[C@H](Nc1c(Nc2ccnc(C(=O)N(C)C(C)C)c2O)c(=O)c1=O)C1(C)CCCC1 [Example 3, (R)-4-((2-(((1,4-Dimethyl-1H-pyrazol-3-yl)(1-methylcyclopentyl)methyl)amino)-3,4-dioxocyclobut-1-en-1-yl)amino)-3-hydroxy-N-isopropyl-N-methylpicolinamide]

IC50 [1, 3]: 922 nM
Structure (SMILES): CCN(C)C(=O)c1nccc(Nc2c(N[C@H](c3nn(C)cc3C)C3(C)CCCC3)c(=O)c2=O)c1O [Example 5, (S)-4-((2-(((1,4-Dimethyl-1H-pyrazol-3-yl)(1-methylcyclopentyl)methyl)amino)-3,4-dioxocyclobut-1-en-1-yl)amino)-N-ethyl-3-hydroxy-N-methylpicolinamide]

IC50 ([2]; Table 17, WO 2013/061005 comparator compounds, read-out: IC50 (nM) CXCR2 Neutrophil, GROα Chemotaxis): 121 nM
Structure (SMILES): Cc1ccc([C@H](Nc2c(Nc3cccc(C(=O)N(C)C)c3O)c(=O)c2=O)C2(C)COC2)o1 [Example 50, reference compound]

Second part, the molecule before the results:

Structure (SMILES): Cc1cn(C)nc1[C@H](Nc1c(Nc2ccnc(C(=O)N(C)C)c2O)c(=O)c1=O)C1(C)CC2(CC2)C1 (single isomer, unassigned) [Example 17]
IC50 [1, 3]: 5.9 nM
T Cell Chemotaxis Selectivity [1]: 535
IC50 [2, 4]: 3160 nM

Structure (SMILES): CCC1([C@@H](Nc2c(Nc3ccnc(C(=O)N(C)C)c3O)c(=O)c2=O)c2nn(C)cc2C)CCC1 (single isomer, unassigned) [Example 35]
IC50 [1, 3]: 30 nM
T Cell Chemotaxis Selectivity [1]: 8
IC50 [2, 4]: 255 nM

Structure (SMILES): Cc1cn(C)nc1[C@H](Nc1c(Nc2ccnc(C(=O)N(C)C)c2O)c(=O)c1=O)[C@]1(C)CC(F)(F)CO1 (single isomer, unassigned) [Example 36]
IC50 [1, 3]: 32.3 nM
T Cell Chemotaxis Selectivity [1]: 220
IC50 [2, 4]: 7130 nM

Structure (SMILES): Cc1cn(C)nc1[C@@H](Nc1c(Nc2ccnc(C(=O)N(C)C)c2O)c(=O)c1=O)C1(C)CCCC1 [Example 2, (S)-4-((2-(((1,4-Dimethyl-1H-pyrazol-3-yl)(1-methylcyclopentyl)methyl)amino)-3,4-dioxocyclobut-1-en-1-yl)amino)-3-hydroxy-N,N-dimethylpicolinamide]
IC50 [1, 3]: 186 nM
IC50 [2, 4]: 7310 nM

Structure (SMILES): CCN(C)C(=O)c1nccc(Nc2c(N[C@@H](c3nn(C)cc3C)C3(C)CCCC3)c(=O)c2=O)c1O [Example 4, (R)-4-((2-(((1,4-Dimethyl-1H-pyrazol-3-yl)(1-methylcyclopentyl)methyl)amino)-3,4-dioxocyclobut-1-en-1-yl)amino)-N-ethyl-3-hydroxy-N-methylpicolinamide]
IC50 [1, 3]: 6.3 nM
T Cell Chemotaxis Selectivity [1]: 140
IC50 [2, 4]: 886 nM

Structure (SMILES): CC[C@@H](Nc1c(Nc2ccnc(C(=O)N(C)C)c2O)c(=O)c1=O)c1cc(C(C)C)co1 [Example 112, reference compound]
IC50 ([2]; Table 15, WO 2010/131145 comparator compounds, read-out: IC50 (nM) CXCR2 Neutrophil, GROα Chemotaxis): 23.2 nM
